These results are taken from patent US10093642B2, “Multitarget hedgehog pathway inhibitors and uses thereof” (UNIVERSITA' DEGLI STUDI DI SIENA, priority 2013, dated 2018).

Some results are limits rather than exact numbers.

For the first data set, the system named is Hh pathway (Gli-RE reporter, activated by SMO agonist SAG). Description: Gli-luciferase reporter assay in SAG-treated NIH 3T3 Shh-light II cells. Particulars: Mus musculus, moderately active class. It is filed as cell-based.
As to `CC(C)=CCc1c2c(c(O)c3c(=O)c(-c4ccc(O)c(O)c4)coc13)C=CC(C)(C)O2` [Auriculasin], the inhibition at 30 µM was no more than 30%.

The next data set shares this test system. The data set is described as above. It is filed as cell-based. To be noted: 5 μM, Shh Light II cells, preliminary results. The method, then: FIG. 4. Effect of active natural compounds identified by the pharmacophore screening in a luciferase assay, where the gene reporter was Gli1 and the pathway was activated by the SAG molecule, a potent SMO agonist. Natural compounds were tested at three different concentrations (1, 10 and 20 μM) and their activity was compared to that of cyclopamine, the natural compound reference inhibitor of the Hedgehog pathway, which was tested at the same doses (1, 10 and 20 μM). On both graphs the activity of cyclopamine is reported as reference standard. (A) cyclopamine, 2,4,5,3′,4′-penta-Ome chalcone and Auriculasin; (B) cyclopamine, Martinoside, Jaceidin, 2,4,5,3′,4′-penta-Ome chalcone, 3,4-di-MDO-2′,4′,5′-tri-Ome dihydrochalcone.
FIG. 6. Dose-response curve of Glabrescione B in SAG (Smoothened Agonist, 200 nM) treated NIH 3T3 Shh-light II (Shh-LII) cells. Treatment time was 48 h and normalization was against Renilla luciferase. Shown is the fold increase of Hh reporter activity compared with cells not treated with SAG.
FIG. 19. Effect of derivatives NT8, NT9, NT10, NT11, NT12, NT13, NT14 and NT15 on the Hedgehog pathway, measured at 5 μM dose in a luciferase assay where the gene reporter was Gli1 and the pathway was activated by the SAG molecule, a potent SMO agonist. […]
To investigate the inhibitory properties of Glabrescione B on Hh signaling, the inventors examined its effects in NIH 3T3 Shh-light II (Shh-LII) cells stably incorporating an Hh-responsive (Gli-RE) reporter, in which induction of the pathway occurs following treatment with the SMO agonist SAG. […] The IC50 in this assay was 0.8 μM.
The ability of Glabrescione B to suppress Hh signaling was assessed in a cellular context of Hh pathway induction. To this end, the antagonist properties of Glabrescione B were determined in Shh Light II (ATCC, cat. # CRL-2795), a murine fibroblast NIH 3T3 cell line. These cells, stably incorporating the Gli-luc reporter and the pRL-TK Renilla reniformis (as described in Taipale, Chen et al. 2000) are a standard tool used to assay Hh pathway activity. The cells that reached the confluence were treated for 48 h with the SMO agonist SAG (200 nM, Alexis, cat. #ALX-270-426-M001) in absence or in presence of Glabrescione B at the amount indicated in FIG. 6. […] Control cells were treated with only DMSO (0.5%, SERVA, cat. #39757.02) Determination of luciferase activities was carried out using the Dual-Luciferase assay according to manufacturer's instructions (Dual-Luciferase® Reporter assay system; Promega, cat. # E1980). All presented data are firefly luciferase activity reported to the Renilla control activity. […] IC50 of 0.8 μM, represents the concentration of Glabrescione B necessary to have fifty percent of inhibition.
Evaluation of the Hh inhibitory activity of these molecules at 5 μM was preliminarily conducted in vitro on Shh Light II cells (see example 2).
Consider `COc1cc(OC)c2c(=O)c(-c3ccc(OC)c(OCC=C(C)C)c3)coc2c1` [NT8, 3-[3′-(3-methyl-but-2-enyloxy)-4′-methoxyphenyl]-5,7-dimethoxy-4H-chromen-4-one], for which the “Hh inhibitory activity compared with Glabrescione B” value is reported as “more potent than Glabrescione B”. Take `COc1cc(OC)c2c(=O)c(-c3ccc(OC)c(OCc4ccccc4)c3)coc2c1` [NT9, 3-(3′-Benzyloxy-4′-methoxyphenyl)-5,7-dimethoxy-4H-chromen-4-one]: the “Hh inhibitory activity compared with Glabrescione B” value is given as “more potent than Glabrescione B”.

The data set is the same for the next values; noted with them: Gli1 gene reporter, pathway activated by SAG; cyclopamine as reference.
Consider `COc1ccc(C(=O)C=Cc2c(OC)cc(OC)c(OC)c2OC)cc1OC` [2,3,4,6,3′,4′-hexa-OMe Chalcone], for which the “effect on Hh pathway in luciferase assay” value is “inhibit the Hh pathway”. Same read-out and setting: in the case of `COc1cc(OC)c(OC)cc1C=CC(=O)c1ccc(OC)c(OC)c1` [2,4,5,3′,4′-penta-OMe Chalcone] it was “inhibit the Hh pathway”; in that of `COc1cc(OC)c(C(=O)CCc2ccc3c(c2)OCO3)cc1OC` [3,4-di-MDO-2′,4′,5′-tri-OMe dihydrochalcone], “inhibit the Hh pathway”; in that of `CC(C)=CCc1c2c(c(O)c3c(=O)c(-c4ccc(O)c(O)c4)coc13)C=CC(C)(C)O2` [Auriculasin], “inhibit the Hh pathway”. Still for that read-out and setting: as for `COc1cc(-c2oc3cc(O)c(OC)c(O)c3c(=O)c2OC)ccc1O` [Jaceidin], the entry is “inhibit the Hh pathway”; as for `COc1ccc(CCO[C@@H]2O[C@H](CO)[C@@H](OC(=O)/C=C/c3ccc(O)c(OC)c3)[C@H](O[C@@H]3O[C@@H](C)[C@H](O)[C@@H](O)[C@H]3O)[C@H]2O)cc1O` [Martinoside], “inhibit the Hh pathway”.

Still in this data set, the particulars now being: pharmacophore screening hits.
As to `C[C@@H]1CC[C@]2(C(=O)O)CC[C@]3(C)C(=CC[C@@H]4[C@@]5(C)CC[C@@H](O)[C@](C)(CO)[C@@H]5CC[C@]43C)[C@@H]2[C@]1(C)O` [Barbinervic Acid], the “activity as Hh inhibitor in luciferase assay (classification)” value (“activity as Hh inhibitor” below) was “not active”.

Take `COc1ccc([C@@H]2CC(=O)c3c(O)cc(O[C@@H]4O[C@H](CO[C@@H]5O[C@@H](C)[C@H](O)[C@@H](O)[C@H]5O)[C@@H](O)[C@H](O)[C@H]4O)cc3O2)cc1O` [Hesperidin]: the “activity as Hh inhibitor” value is “not active”. Regarding `CC(C)=CCc1c(O)ccc(C(=O)C2C(c3c(O)cc(/C=C/c4ccc(O)cc4O)cc3O)C=C(C)CC2c2ccc(O)cc2O)c1O` (stereo not drawn) [Kuwanol-E], the “activity as Hh inhibitor” value is listed as “not active”. On to `O=c1c(O)c(-c2cc(O)c(O)c(O)c2)oc2cc(O)cc(O)c12` [Myricetin], for which the “activity as Hh inhibitor” value is listed as “not active”. On the same count and under the same terms, as for `C[C@@H]1O[C@@H](O[C@H]2[C@H](Oc3cc(O)c4c(c3)O[C@H](c3ccc(O)cc3)CC4=O)O[C@H](CO)[C@@H](O)[C@@H]2O)[C@H](O)[C@H](O)[C@H]1O` [Naringin], the entry is “not active”; as for `CC1=CC2c3c(O)cc(/C=C/c4ccc(O)cc4O)cc3OC3(c4ccc(O)c5c4OC(C)(C)C=C5)Oc4cc(O)ccc4C(C1)C23` (stereo not drawn) [Sorocein-A], “not active”; as for `CC1=CC2c3c(ccc(C(=O)/C=C/c4ccc(O)cc4O)c3O)OC3(c4ccc(O)c5c4OC(C)(C)C=C5)Oc4cc(O)ccc4C(C1)C23` (stereo not drawn) [Sorocein-B], “not active”. On to Isosophoranon, for which the “activity as Hh inhibitor” value was “not active”. Take Veratrin: the “activity as Hh inhibitor” value was “not active”.

For the next data set, the target named is SMO heptahelical domain (Homo sapiens, UniProt Q99835).
Sequence of SMO heptahelical domain (Q99835 28-787): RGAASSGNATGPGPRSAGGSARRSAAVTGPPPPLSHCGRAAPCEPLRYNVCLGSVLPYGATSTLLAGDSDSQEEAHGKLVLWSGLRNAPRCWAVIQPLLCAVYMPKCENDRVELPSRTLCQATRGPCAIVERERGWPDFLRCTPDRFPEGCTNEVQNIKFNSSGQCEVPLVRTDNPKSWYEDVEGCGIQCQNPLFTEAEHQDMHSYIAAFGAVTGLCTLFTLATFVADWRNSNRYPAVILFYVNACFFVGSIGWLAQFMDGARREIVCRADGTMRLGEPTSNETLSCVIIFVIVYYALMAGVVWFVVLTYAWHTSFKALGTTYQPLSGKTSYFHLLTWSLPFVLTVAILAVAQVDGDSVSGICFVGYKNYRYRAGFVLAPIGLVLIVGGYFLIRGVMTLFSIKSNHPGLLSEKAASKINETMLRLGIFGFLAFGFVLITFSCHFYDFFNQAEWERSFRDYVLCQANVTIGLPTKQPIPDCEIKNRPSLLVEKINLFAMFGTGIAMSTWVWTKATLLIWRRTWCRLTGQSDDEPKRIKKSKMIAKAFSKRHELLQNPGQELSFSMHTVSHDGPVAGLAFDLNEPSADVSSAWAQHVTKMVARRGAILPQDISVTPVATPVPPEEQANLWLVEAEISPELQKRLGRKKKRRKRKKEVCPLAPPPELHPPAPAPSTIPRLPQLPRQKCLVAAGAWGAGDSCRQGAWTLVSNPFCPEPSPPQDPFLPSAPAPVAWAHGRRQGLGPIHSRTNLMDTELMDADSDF
Experiment: not given
Particulars: cited from earlier work.
Regarding `CNC1CCC(N(Cc2cccc(-c3ccncc3)c2)C(=O)c2sc3ccccc3c2Cl)CC1` (stereo not drawn) [SAG], the Kd was 59 nM.

Test system in a further data set: not given
Experiment: not given
Conditions: not given
`COc1cc(OC)c2c(=O)c(-c3ccc(OC)c(OCc4ccccc4)c3)coc2c1` [NT9, 3-(3′-Benzyloxy-4′-methoxyphenyl)-5,7-dimethoxy-4H-chromen-4-one]: the melting point is 126 °C.

`COc1cc(OC)c2c(=O)c(-c3ccc(OC)c(OCc4ccc(C(F)(F)F)cc4)c3)coc2c1` [NT11, 5,7-Dimethoxy-3-[4-methoxy-3-(4-trifluoromethyl-benzyloxy)-phenyl]-chromen-4-one]: the melting point lay in the range of 128.6 to 129.1 °C. `COc1cc(OC)c2c(=O)c(-c3ccc(OCC=C(C)C)c(OC)c3)coc2c1` [NT12, 5,7-Dimethoxy-3-[3′-methoxy-4′-(3-methyl-but-2-enyloxy)-phenyl]-chromen-4-one] yielded a melting point of 130.7 to 131.8 °C. Same read-out and setting: as for `COc1cc(OC)c2c(=O)c(-c3ccc(OCc4ccccc4)c(OC)c3)coc2c1` [NT13, 3-(4-Benzyloxy-3-methoxy-phenyl)-5,7-dimethoxy-chromen-4-one], the figure is 142.8 to 143.7 °C; as for `COc1cc(OC)c2c(=O)c(-c3ccc(OCc4ccc(C(F)(F)F)cc4)c(OC)c3)coc2c1` [NT15, 5,7-Dimethoxy-3-[3-methoxy-4-(4-trifluoromethyl-benzyloxy)-phenyl]-chromen-4-one], 128.4 to 130.2 °C.

In general, inhibition refers to the percentage by which the read-out fell short of the control. A high value points to strong suppression. Usually Kd stands for the free concentration of one partner at which half of the binding sites on the other are occupied at equilibrium, for simple one-to-one binding. The melting point is the temperature, or range, at which the solid turns liquid.
